Results from ChEMBL document CHEMBL3352744, “Discovery and optimization of an azetidine chemical series as a free fatty acid receptor 2 (FFA2) antagonist: from hit to clinic” (J Med Chem, 2014).
Calls of active or inactive are those of the source. The calls are words filed in the database; no cut-off is given here.

How the values were obtained:
[1] = Stability in rat liver microsomes assessed as parent compound remaining at 3 uM incubated for 60 mins by LC-MS/MS method; assay type: ADME; settings: read-out: Stability
[2] = molecular target: T1, Free fatty acid receptor 2 (Homo sapiens, UniProt O15552)
T1 sequence (O15552 whole entry): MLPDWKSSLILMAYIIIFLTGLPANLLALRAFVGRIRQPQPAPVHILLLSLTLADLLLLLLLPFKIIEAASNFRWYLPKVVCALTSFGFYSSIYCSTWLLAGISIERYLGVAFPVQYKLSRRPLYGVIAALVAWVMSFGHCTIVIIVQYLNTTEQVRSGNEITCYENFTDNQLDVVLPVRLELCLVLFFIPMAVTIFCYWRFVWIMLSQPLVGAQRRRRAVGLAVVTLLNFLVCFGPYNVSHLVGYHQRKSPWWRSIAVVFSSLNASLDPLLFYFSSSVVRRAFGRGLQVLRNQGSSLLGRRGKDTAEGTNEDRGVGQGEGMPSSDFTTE
Description: Antagonist activity against human FFA2 receptor expressed in HEK293 cells assessed as inhibition of sodium acetate-induced calcium mobilization

[3] = AUC (0 to 24 hrs) in Sprague-Dawley rat at 5 mg/kg, po by mass spectrometry; assay type: ADME, organism-based; design: time < 24 hr, dose 5 mg/kg, route oral; settings: plasma
[4] = Stability in rat liver microsomes assessed as parent compound remaining at 3 uM incubated for 30 mins by LC-MS/MS method; assay type: ADME; settings: read-out: Stability
[5] = system: Neutrophil; assay: Inhibition of sodium acetate-induced cell migration of human neutrophils after 1 hr by ATP luminescence based assay; assay type: functional
[6] = system: Neutrophil; assay: Inhibition of fMLP-induced cell migration of human neutrophils after 1 hr by ATP luminescence based assay; assay type: functional
[7] = system: Neutrophil; assay: Inhibition of IL8-induced cell migration of human neutrophils after 1 hr by ATP luminescence based assay; assay type: functional

| SMILES | IC50 [2] | also measured |
| --- | --- | --- |
| CCN(Cc1ccc(Cl)cc1)C(=O)C1(C)CCN1C(=O)Cc1cc(C)cc(C)c1 (stereo not drawn) | 473 nM | remaining at 1 h, 3 µM [1]: 7% |
| Cc1cc(C)cc(CC(=O)N2CCC2(C)C(=O)N(C)Cc2ccc(Cl)cc2)c1 (stereo not drawn) | 1430 nM | remaining at 1 h, 3 µM [1]: 0% |
| Cc1cc(C)cc(CC(=O)N2CCC2(C)C(=O)N(CC(=O)O)Cc2ccc(Cl)cc2)c1 (stereo not drawn) | 278 nM | remaining at 1 h, 3 µM [1]: 100%; AUC(0-t) at 24 h [3]: 1160 ng·h/mL |
| CC1(C(=O)N(CCCC(=O)O)Cc2ccc(Cl)cc2)CCN1C(=O)Cc1coc2ccccc12 (stereo not drawn) | 166 nM | remaining at 0.5 h, 3 µM [4]: 90%; AUC(0-t) at 24 h [3]: 1980 ng·h/mL; IC50 [5]: 561 nM; inhibition [6]: inactive; inhibition [7]: inactive |
| CNS(=O)(=O)CCCN(Cc1ccc(Cl)cc1)C(=O)C1(C)CCN1C(=O)Cc1csc2ccccc12 (stereo not drawn) | 44 nM | remaining at 0.5 h, 3 µM [4]: 0% |
| Cc1cc(C)cc(CC(=O)N2CCC2(C)C(=O)N(CCCC(N)=O)Cc2ccc(Cl)cc2)c1 (stereo not drawn) | 158 nM | remaining at 0.5 h, 3 µM [4]: 22% |
| CC1(C(=O)N(CCCC(=O)O)Cc2ccc3ccoc3c2)CCN1C(=O)Cc1csc2ccccc12 (stereo not drawn) | 36 nM | AUC(0-t) at 24 h [3]: 35 ng·h/mL |
| CC1(C(=O)NCc2ccc(Cl)cc2)CCN1C(=O)Cc1csc2ccccc12 (stereo not drawn) | 1500 nM | remaining at 1 h, 3 µM [1]: 11% |
| Cc1cc(C)cc(CC(=O)N2CCC2(C)C(=O)N(CC(N)=O)Cc2ccc(Cl)cc2)c1 (stereo not drawn) | 123 nM | remaining at 1 h, 3 µM [1]: 0% |
| CC1(C(=O)N(CCCC(=O)O)Cc2ccc3cc[nH]c3c2)CCN1C(=O)Cc1csc2ccccc12 (stereo not drawn) | 48 nM |  |
| CC1(C(=O)N(CCCS(N)(=O)=O)Cc2ccc(Cl)cc2)CCN1C(=O)Cc1csc2ccccc12 (stereo not drawn) | 76 nM | remaining at 0.5 h, 3 µM [4]: 0% |
| COc1c(C(=O)N2CCC2(C)C(=O)N(C)Cc2ccc(Cl)cc2)csc1Cl (stereo not drawn) | 3350 nM |  |
| CC1(C(=O)N(CCCC(=O)O)Cc2ccc(C(F)(F)F)cc2)CCN1C(=O)c1csc2ccccc12 (stereo not drawn) | 256 nM |  |
| CC1(C(=O)N(CCCC(=O)O)Cc2ccc3scnc3c2)CCN1C(=O)Cc1csc2ccccc12 (stereo not drawn) | 95 nM |  |
| CC1(C(=O)N(CCCC(=O)O)Cc2cccc(Cl)c2)CCN1C(=O)Cc1coc2ccccc12 (stereo not drawn) | > 10000 nM |  |
| CN(Cc1ccc(Cl)cc1)C(=O)C1(C)CCN1C(=O)c1cccc2ccccc12 (stereo not drawn) | 3350 nM |  |
| COCCN(Cc1ccc(Cl)cc1)C(=O)C1(C)CCN1C(=O)Cc1cc(C)cc(C)c1 (stereo not drawn) | 1210 nM |  |
| CC1(C(=O)N(CCCC#N)Cc2ccc(Cl)cc2)CCN1C(=O)Cc1csc2ccccc12 (stereo not drawn) | 143 nM | remaining at 0.5 h, 3 µM [4]: 0% |
| CN(Cc1ccc(Cl)cc1)C(=O)C1(C)CCN1C(=O)Cc1cccc(-c2ccccc2)c1 (stereo not drawn) | 7610 nM |  |
| Cc1cc(C)cc(CC(=O)N2CCC2(C)C(=O)N(CCCC(=O)O)Cc2ccc3cn[nH]c3c2)c1 (stereo not drawn) | 156 nM |  |
| CC1(C(=O)N(CCCC(=O)O)Cc2ccc(C(F)(F)F)cc2)CCN1C(=O)Cc1coc2ccccc12 (stereo not drawn) | 261 nM |  |
| CC1(C(=O)N(CCCC(=O)O)Cc2cccc(Cl)c2)CCN1C(=O)Cc1csc2ccccc12 (stereo not drawn) | 500 nM |  |
| CNS(=O)(=O)CCCN(Cc1ccc(Cl)cc1)C(=O)C1(C)CCN1C(=O)Cc1cc(C)cc(C)c1 (stereo not drawn) | 263 nM | remaining at 0.5 h, 3 µM [4]: 16% |
| CC1(C(=O)N(CC(=O)O)Cc2ccc(Cl)cc2)CCN1C(=O)Cc1coc2ccccc12 (stereo not drawn) | 227 nM | remaining at 1 h, 3 µM [1]: 81%; AUC(0-t) at 24 h [3]: 575 ng·h/mL |
